The compounds below were run against Btk enzyme (His-Btk) (Homo sapiens (Human), UniProt Q06187) (assay: Btk enzyme activity, IMAP fluorescence polarization assay (Assay Method A)). Conditions: not given.
Btk enzyme (His-Btk), sequence (Q06187 whole entry): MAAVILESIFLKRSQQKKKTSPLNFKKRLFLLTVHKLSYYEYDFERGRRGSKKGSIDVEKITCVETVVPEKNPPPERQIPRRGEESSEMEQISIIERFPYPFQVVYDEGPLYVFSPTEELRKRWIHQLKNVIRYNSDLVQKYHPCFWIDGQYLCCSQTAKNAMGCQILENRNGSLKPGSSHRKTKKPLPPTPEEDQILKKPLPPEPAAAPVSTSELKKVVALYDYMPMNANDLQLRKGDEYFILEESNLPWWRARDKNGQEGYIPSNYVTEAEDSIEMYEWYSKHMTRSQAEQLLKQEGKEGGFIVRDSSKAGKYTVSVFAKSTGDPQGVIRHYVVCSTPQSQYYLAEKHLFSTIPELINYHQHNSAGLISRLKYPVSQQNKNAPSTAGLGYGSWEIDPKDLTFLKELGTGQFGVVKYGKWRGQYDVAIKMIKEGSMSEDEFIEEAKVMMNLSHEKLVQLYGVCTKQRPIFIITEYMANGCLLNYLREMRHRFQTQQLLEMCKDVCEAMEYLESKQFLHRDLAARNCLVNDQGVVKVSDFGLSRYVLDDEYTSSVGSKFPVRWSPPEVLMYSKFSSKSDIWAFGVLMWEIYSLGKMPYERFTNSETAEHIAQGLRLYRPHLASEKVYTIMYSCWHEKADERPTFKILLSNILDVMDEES

| EC50 [nM] | Compound |
| --- | --- |
| < 10 | CC1(C(=O)N2CCC[C@@H](c3nc(-c4ccc(C(=O)Nc5cc(C(F)(F)F)ccn5)cc4)c4c(N)ncnn34)C2)CCC1 [Example 254, (R)-4-(4-amino-7-(1-(1-methylcyclobutanecarbonyl)piperidin-3-yl)imidazo[1,5-f][1,2,4]triazin-5-yl)-N-(4-(trifluoromethyl)pyridin-2-yl)benzamide] |
| 10 to 100 | Nc1ncnn2c([C@@H]3CCCNC3)nc(-c3ccc(C(=O)Nc4cc(C(F)(F)F)ccn4)cc3)c12 [Example 258, (R)-4-(4-amino-7-(piperidin-3-yl)imidazo[1,5-f][1,2,4]triazin-5-yl)-N-(4-(trifluoromethyl)pyridin-2-yl)benzamide] |
| 10 to 100 | COCC1(C(=O)N2CCC[C@@H](n3nc(-c4ccc(C(=O)Nc5cc(C(F)(F)F)ccn5)cc4)c4c(N)ncnc43)C2)CCC1 [Example 272, (R)-4-(4-amino-1-(1-(1-(methoxymethyl)cyclobutanecarbonyl)piperidin-3-yl)-1H-pyrazolo[3,4-d]pyrimidin-3-yl)-N-(4-(trifluoromethyl)pyridin-2-yl)benzamide] |

Continued, compound first:

| Compound | EC50 [nM] |
| --- | --- |
| Nc1ncnc2c1c(-c1ccc(C(=O)Nc3cc(C(F)(F)F)ccn3)cc1)nn2[C@@H]1CCCN(C(=O)[C@H]2CCCO2)C1 [Example 262, 4-(4-amino-1-((R)-1-((R)-tetrahydrofuran-2-carbonyl)piperidin-3-yl)-1H-pyrazolo[3,4-d]pyrimidin-3-yl)-N-(4-(trifluoromethyl)pyridin-2-yl)benzamide] | < 10 |
| CC(C)(C#N)C(=O)N1CCC[C@@H](n2nc(-c3ccc(C(=O)Nc4cc(C(F)(F)F)ccn4)cc3)c3c(N)ncnc32)C1 [Example 263, (R)-4-(4-amino-1-(1-(2-cyano-2-methylpropanoyl)piperidin-3-yl)-1H-pyrazolo[3,4-d]pyrimidin-3-yl)-N-(4-(trifluoromethyl)pyridin-2-yl)benzamide] | 10 to 100 |
| Nc1ncnc2c1c(-c1ccc(C(=O)Nc3cc(C(F)(F)F)ccn3)cc1)nn2[C@@H]1CCCN(C(=O)C(Cl)(Cl)Cl)C1 [Example 265, (R)-4-(4-amino-1-(1-(2,2,2-trichloroacetyl)piperidin-3-yl)-1H-pyrazolo[3,4-d]pyrimidin-3-yl)-N-(4-(trifluoromethyl)pyridin-2-yl)benzamide] | 10 to 100 |
| CC(C)(F)C(=O)N1CCC[C@@H](n2nc(-c3ccc(C(=O)Nc4cc(C(F)(F)F)ccn4)cc3)c3c(N)ncnc32)C1 [Example 270, (R)-4-(4-amino-1-(1-(2-fluoro-2-methylpropanoyl)piperidin-3-yl)-1H-pyrazolo[3,4-d]pyrimidin-3-yl)-N-(4-(trifluoromethyl)pyridin-2-yl)benzamide] | 10 to 100 |
| Nc1ncnc2c1c(-c1ccc(C(=O)Nc3cc(C(F)(F)F)ccn3)cc1)nn2[C@@H]1CCCN(C(=O)C(F)(F)F)C1 [Example 274, (R)-4-(4-amino-1-(1-(2,2,2-trifluoroacetyl)piperidin-3-yl)-1H-pyrazolo[3,4-d]pyrimidin-3-yl)-N-(4-(trifluoromethyl)pyridin-2-yl)benzamide] | 10 to 100 |
| CC(C)C(=O)N1CCC[C@@H](n2nc(-c3ccc(C(=O)Nc4cc(C(F)(F)F)ccn4)cc3)c3c(N)ncnc32)C1 [Example 279, (R)-4-(4-amino-1-(1-isobutyrylpiperidin-3-yl)-1H-pyrazolo[3,4-d]pyrimidin-3-yl)-N-(4-(trifluoromethyl)pyridin-2-yl)benzamide] | 10 to 100 |

Same assay, conditions: read-out: EC50 Btk activity values - Assay Method A; IMAP-FP, 60 min pre-incubation, 5 μM ATP; class 100-1000 is given as ≧100 nM-<1 μM

| EC50 [nM] | Compound |
| --- | --- |
| < 10 | CCOC(=O)N1CCC[C@@H](c2nc(-c3ccc(C(=O)Nc4cc(C(F)(F)F)ccn4)cc3)c3c(N)ncnn23)C1 [Example 255, (R)-ethyl 3-(4-amino-5-(4-(4-(trifluoromethyl)pyridin-2-ylcarbamoyl)phenyl)imidazo[1,5-f][1,2,4]triazin-7-yl)piperidine-1-carboxylate] |
| < 10 | CCNC(=O)N1CCC[C@@H](c2nc(-c3ccc(C(=O)Nc4cc(C(F)(F)F)ccn4)cc3)c3c(N)ncnn23)C1 [Example 256, (R)-3-(4-amino-5-(4-(4-(trifluoromethyl)pyridin-2-ylcarbamoyl)phenyl)imidazo[1,5-f][1,2,4]triazin-7-yl)-N-ethylpiperidine-1-carboxamide] |
| < 10 | CC(C)(F)C(=O)N1CCC[C@@H](c2nc(-c3ccc(C(=O)Nc4cc(C(F)(F)F)ccn4)cc3)c3c(N)ncnn23)C1 [Example 257, (R)-4-(4-amino-7-(1-(2-fluoro-2-methylpropanoyl)piperidin-3-yl)imidazo[1,5-f][1,2,4]triazin-5-yl)-N-(4-(trifluoromethyl)pyridin-2-yl)benzamide] |
| < 10 | CCOCCC(=O)N1CCC[C@@H](c2nc(-c3ccc(C(=O)Nc4cc(C(F)(F)F)ccn4)cc3)c3c(N)ncnn23)C1 [Example 259, (R)-4-(4-amino-7-(1-(3-ethoxypropanoyl)piperidin-3-yl)imidazo[1,5-f][1,2,4]triazin-5-yl)-N-(4-(trifluoromethyl)pyridin-2-yl)benzamide] |
| < 10 | Nc1ncnn2c([C@@H]3CCCN(C(=O)C4CC(F)(F)C4)C3)nc(-c3ccc(C(=O)Nc4cc(C(F)(F)F)ccn4)cc3)c12 [Example 260, (R)-4-(4-amino-7-(1-(3,3-difluorocyclobutanecarbonyl)piperidin-3-yl)imidazo[1,5-f][1,2,4]triazin-5-yl)-N-(4-(trifluoromethyl)pyridin-2-yl)benzamide] |
| < 10 | CC1(C(=O)N2CCC[C@@H](c3nc(-c4ccc(C(=O)Nc5cc(C(F)(F)F)ccn5)cc4)c4c(N)ncnn34)C2)COC1 [Example 261, (R)-4-(4-amino-7-(1-(3-methyloxetane-3-carbonyl)piperidin-3-yl)imidazo[1,5-f][1,2,4]triazin-5-yl)-N-(4-(trifluoromethyl)pyridin-2-yl)benzamide] |
| < 10 | CC1(C(=O)N2CCC[C@@H](n3nc(-c4ccc(C(=O)Nc5cc(C(F)(F)F)ccn5)cc4)c4c(N)ncnc43)C2)CCC1 [Example 266, (R)-4-(4-amino-1-(1-(1-methylcyclobutanecarbonyl)piperidin-3-yl)-1H-pyrazolo[3,4-d]pyrimidin-3-yl)-N-(4-(trifluoromethyl)pyridin-2-yl)benzamide] |
| < 10 | CC1(C(=O)N2CCC[C@@H](n3nc(-c4ccc(C(=O)Nc5cc(C(F)(F)F)ccn5)cc4)c4c(N)ncnc43)C2)COC1 [Example 267, (R)-4-(4-amino-1-(1-(3-methyloxetane-3-carbonyl)piperidin-3-yl)-1H-pyrazolo[3,4-d]pyrimidin-3-yl)-N-(4-(trifluoromethyl)pyridin-2-yl)benzamide] |
| < 10 | CCC(=O)N1CCC[C@@H](n2nc(-c3ccc(C(=O)Nc4cc(C(F)(F)F)ccn4)cc3)c3c(N)ncnc32)C1 [Example 271, (R)-4-(4-amino-1-(1-propionylpiperidin-3-yl)-1H-pyrazolo[3,4-d]pyrimidin-3-yl)-N-(4-(trifluoromethyl)pyridin-2-yl)benzamide] |
| < 10 | Nc1ncnc2c1c(-c1ccc(C(=O)Nc3cc(C(F)(F)F)ccn3)cc1)nn2[C@@H]1CCCN(C(=O)C2CCC2)C1 [Example 277, (R)-4-(4-amino-1-(1-(cyclobutanecarbonyl)piperidin-3-yl)-1H-pyrazolo[3,4-d]pyrimidin-3-yl)-N-(4-(trifluoromethyl)pyridin-2-yl)benzamide] |

The next lines start with the compound.

| Compound | EC50 [nM] |
| --- | --- |
| COCCOCCOCCOCCC(=O)N1CCC[C@@H](n2nc(-c3ccc(C(=O)Nc4cc(C(F)(F)F)ccn4)cc3)c3c(N)ncnc32)C1 [Example 264, (R)-4-(1-(1-2,5,8,11-tetraoxatetradecanepiperidin-3-yl)-4-amino-1H-pyrazolo[3,4-d]pyrimidin-3-yl)-N-(4-(trifluoromethyl)pyridin-2-yl)benzamide] | < 10 |
| CCNC(=O)N1CCC[C@@H](n2nc(-c3ccc(C(=O)Nc4cc(C(F)(F)F)ccn4)cc3)c3c(N)ncnc32)C1 [Example 268, (R)-3-(4-amino-3-(4-(4-(trifluoromethyl)pyridin-2-ylcarbamoyl)phenyl)-1H-pyrazolo[3,4-d]pyrimidin-1-yl)-N-ethylpiperidine-1-carboxamide] | < 10 |
| Nc1ncnc2c1c(-c1ccc(C(=O)Nc3cc(C(F)(F)F)ccn3)cc1)nn2[C@@H]1CCCN(C(=O)C2CC2)C1 [Example 269, (R)-4-(4-amino-1-(1-(cyclopropanecarbonyl)piperidin-3-yl)-1H-pyrazolo[3,4-d]pyrimidin-3-yl)-N-(4-(trifluoromethyl)pyridin-2-yl)benzamide] | < 10 |
| CCOC(=O)N1CCC[C@@H](n2nc(-c3ccc(C(=O)Nc4cc(C(F)(F)F)ccn4)cc3)c3c(N)ncnc32)C1 [Example 273, (R)-ethyl 3-(4-amino-3-(4-(4-(trifluoromethyl)pyridin-2-ylcarbamoyl)phenyl)-1H-pyrazolo[3,4-d]pyrimidin-1-yl)piperidine-1-carboxylate] | < 10 |
| COCCOCCC(=O)N1CCC[C@@H](n2nc(-c3ccc(C(=O)Nc4cc(C(F)(F)F)ccn4)cc3)c3c(N)ncnc32)C1 [Example 275, (R)-4-(4-amino-1-(1-(3-(2-methoxyethoxy)propanoyl)piperidin-3-yl)-1H-pyrazolo[3,4-d]pyrimidin-3-yl)-N-(4-(trifluoromethyl)pyridin-2-yl)benzamide] | < 10 |
| CSCCC(=O)N1CCC[C@@H](n2nc(-c3ccc(C(=O)Nc4cc(C(F)(F)F)ccn4)cc3)c3c(N)ncnc32)C1 [Example 276, (R)-4-(4-amino-1-(1-(3-(methylthio)propanoyl)piperidin-3-yl)-1H-pyrazolo[3,4-d]pyrimidin-3-yl)-N-(4-(trifluoromethyl)pyridin-2-yl)benzamide] | < 10 |
| Nc1ncnc2c1c(-c1ccc(C(=O)Nc3cc(C(F)(F)F)ccn3)cc1)nn2[C@@H]1CCCN(C(=O)C2CC(F)(F)C2)C1 [Example 278, (R)-4-(4-amino-1-(1-(3,3-difluorocyclobutanecarbonyl)piperidin-3-yl)-1H-pyrazolo[3,4-d]pyrimidin-3-yl)-N-(4-(trifluoromethyl)pyridin-2-yl)benzamide] | < 10 |
| COCCC(=O)N1CCC[C@@H](n2nc(-c3ccc(C(=O)Nc4cc(C(F)(F)F)ccn4)cc3)c3c(N)ncnc32)C1 [Example 280, (R)-4-(4-amino-1-(1-(3-methoxypropanoyl)piperidin-3-yl)-1H-pyrazolo[3,4-d]pyrimidin-3-yl)-N-(4-(trifluoromethyl)pyridin-2-yl)benzamide] | < 10 |
